Values quoted from earlier work, collected in paper PMC11675001, “Monovalent and Divalent Designs of Copper Radiotheranostics Targeting Fibroblast Activation Protein in Cancer” (Cancers, 2024).

Assays:
[1] = after 3 h; ref European Journal of Nuclear Medicine and Molecular Imaging (2022): 1-11 [3]; Pharmaceuticals 16, no. 8 (2023): 1138 [4]
[2] = ref European Journal of Nuclear Medicine and Molecular Imaging (2022): 1-11 [3]; Pharmaceuticals 16, no. 8 (2023): 1138 [4]

Stability [1]: > 95.3%
Partition coefficient (LogP) [2]: −3.57
SMILES: CN(CCCN1CCN(C(=O)CN2CCN(CC(=O)[O-])CCN(CC(=O)[O-])CCN(CC(=O)[O-])CC2)CC1)c1ccc2nccc(C(=O)NCC(=O)N3CC(F)(F)C[C@H]3C#N)c2c1.[68Ga+3] [[68Ga]Ga-FAPI-46]
